Experimental data: ChEMBL document CHEMBL3739260, “Substituted 4-hydroxy-1,2,3-triazoles: synthesis, characterization and first drug design applications through bioisosteric modulation and scaffold hopping approaches” (Medchemcomm, 2015)
One block for each compound: values may come before it.

Columns and labels:
Chitinase = molecular target: T1, Chitinase (Onchocerca volvulus, UniProt Q25615); assay: Inhibition of Onchocerca volvulus chitinase by fluorescence based assay
T1 sequence (Q25615 whole entry): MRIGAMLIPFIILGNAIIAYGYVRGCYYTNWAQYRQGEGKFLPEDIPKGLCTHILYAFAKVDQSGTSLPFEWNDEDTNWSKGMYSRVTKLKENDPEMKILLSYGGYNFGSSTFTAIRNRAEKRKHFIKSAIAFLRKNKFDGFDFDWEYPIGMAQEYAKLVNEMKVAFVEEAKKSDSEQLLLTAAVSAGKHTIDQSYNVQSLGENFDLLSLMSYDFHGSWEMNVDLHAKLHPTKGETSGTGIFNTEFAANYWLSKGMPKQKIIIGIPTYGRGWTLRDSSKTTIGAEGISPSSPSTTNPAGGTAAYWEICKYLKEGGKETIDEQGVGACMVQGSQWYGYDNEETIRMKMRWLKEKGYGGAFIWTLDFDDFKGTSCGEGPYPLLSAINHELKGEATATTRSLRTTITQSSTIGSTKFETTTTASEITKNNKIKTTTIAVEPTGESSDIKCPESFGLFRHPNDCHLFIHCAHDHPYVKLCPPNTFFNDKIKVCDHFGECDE

[1] = Dissociation constant, pKa of the compound; assay type: physicochemical
[2] = Displacement of [3H]AMPA from AMPA receptor in rat cortical synaptosomes; assay type: subcellular
[3] = Displacement of [3H]KA from Kainate receptor in rat cortical synaptosomes; assay type: subcellular
Glutamate NMDA receptor = assay: Displacement of [3H]CGP39653 from NMDA receptor in rat cortical synaptosomes; assay type: subcellular

SMILES: Cn1nnc(O)c1C(=O)Nc1ccc(Oc2ccccc2)cc1
IC50 (Chitinase): 4.69 µM

SMILES: O=C(Nc1ccc(Oc2ccccc2)cc1)c1c(O)nnn1CC1CCCCC1
IC50 (Chitinase): 5.11 µM

SMILES: O=C(Nc1ccc(Oc2ccccc2)cc1)c1c(OCc2ccccc2)nnn1CC1CCCCC1
IC50 (Chitinase): 0.52 µM

SMILES: O=C(Nc1ccc(Oc2ccccc2)cc1)c1nn(Cc2ccccc2)nc1OCc1ccccc1
IC50 (Chitinase): 0.41 µM

SMILES: N[C@@H](Cc1nsnc1O)C(=O)O
IC50 [2]: 0.065 µM
IC50 [3]: > 100 µM
Ki (Glutamate NMDA receptor): > 100 µM

SMILES: N[C@@H](CCC(=O)O)C(=O)O [GLUTAMIC ACID]
pKa [1]: 4.2

SMILES: O=C(Nc1ccc(Oc2ccccc2)cc1)c1c(OCc2ccccc2)nnn1Cc1ccccc1
IC50 (Chitinase): 0.41 µM

SMILES: Cn1nc(O)c(CC(N)C(=O)O)n1 (racemic)
IC50 [3]: > 100 µM
Ki (Glutamate NMDA receptor): > 100 µM

SMILES: Cn1nnc(O)c1CC(N)C(=O)O (racemic)
pKa [1]: 6.42
IC50 [2]: 1.4 µM
IC50 [3]: > 100 µM
Ki (Glutamate NMDA receptor): > 100 µM

The next lines start with the values.

pKa [1]: 6.22
SMILES: CCOC(=O)c1nnn(Cc2ccccc2)c1O

pKa [1]: 6.21
SMILES: CCOC(=O)c1nnn(C)c1O

pKa [1]: 3.24
SMILES: CCOC(=O)c1nonc1O

pKa [1]: 5.14
SMILES: CCOC(=O)c1nn(C)nc1O

pKa [1]: 5.54
SMILES: CCOC(=O)c1c(O)nnn1C

pKa [1]: 5.14
SMILES: CCOC(=O)c1nn(Cc2ccccc2)nc1O

pKa [1]: 4.21
SMILES: CCOC(=O)c1nsnc1O

pKa [1]: 5.38
SMILES: CCOC(=O)c1c(O)nnn1Cc1ccccc1

pKa [1]: 6.71
SMILES: CCOC(=O)c1cn(C)nc1O
